Measured values published in ChEMBL document CHEMBL1133695, “A three-dimensional model of lanosterol 14alpha-demethylase of Candida albicans and its interaction with azole antifungals” (J Med Chem, 2000).

System: Candida albicans
Test: Concentration required to reduce the growth of Candida albicans to 50% of that in the control
Format: functional, organism-based

`OC(Cn1cncn1)(Cn1cncn1)c1ccccc1C(F)(F)F` showed an IC50 of 103 µM.
`COc1cc(C(F)(F)F)ccc1C(O)(Cn1cncn1)Cn1cncn1` gave an IC50 of 28.5 µM.
For `OC(Cn1cncn1)(Cn1cncn1)c1ccc(-c2ccc(Cl)cc2)cc1`, the IC50 was 7.19 µM.
Work on `OC(Cn1cncn1)(Cn1cncn1)c1ccc(F)cc1F` [FLUCONAZOLE] yielded an IC50 of 1.97 µM.
`Cc1cc(F)ccc1C(O)(Cn1cncn1)Cn1cncn1` showed an IC50 of 101 µM.
`OC(Cn1cncn1)(Cn1cncn1)c1ccc(Oc2ccc(Cl)cc2)cc1` gave an IC50 of 6.94 µM.
In the case of `OC(Cn1cncn1)(Cn1cncn1)c1ccc(C(F)(F)F)cc1`, the IC50 is reported as 3.25 µM.
